From US9796704B2, “Substituted quinazolines as receptor-type kinase inhibitors” (Symphony Evolution, Inc., priority 2002, dated 2017)
Read-outs that look alike come from different tables or passages of the source.

Columns and labels:
[1] = biological target: EphB4 (Homo sapiens (Human), UniProt P54760); assay: EphB4 kinase inhibition, 33P phosphoryl transfer assay (radiometric); type: biochemical
[2] = biological target: EphA2 (Homo sapiens (Human), UniProt P29317); assay: EphA2 kinase inhibition, luciferase-coupled chemiluminescent assay (LCCA)
[3] = biological target: EGFR (Homo sapiens (Human), UniProt P00533); assay: EGFR kinase inhibition, luciferase-coupled chemiluminescent assay (LCCA)
[4] = biological target: ErbB2 (Homo sapiens (Human), UniProt P04626); assay: ErbB2 kinase inhibition, AlphaScreen; type: biochemical
Procedure: Kinase activity and compound inhibition are investigated using one or more of the three assay formats described below. The ATP concentrations are selected near its Michaelis-Menten constant (KM) for each individual kinase. Dose-response experiments are performed at ten different inhibitor concentrations in a 384-well plate format. […] These parameters are obtained by nonlinear regression algorithm built into ActivityBase software (available from ID Business Solutions Ltd., of Guildford, Surrey, UK). ^33P Phosphoryl Transfer Assay (Radiometric)

[5] = biological target: KDR (Homo sapiens (Human), UniProt P35968); assay: KDR kinase inhibition, luciferase-coupled chemiluminescent assay (LCCA)
Chain of KDR (P35968 807-1356): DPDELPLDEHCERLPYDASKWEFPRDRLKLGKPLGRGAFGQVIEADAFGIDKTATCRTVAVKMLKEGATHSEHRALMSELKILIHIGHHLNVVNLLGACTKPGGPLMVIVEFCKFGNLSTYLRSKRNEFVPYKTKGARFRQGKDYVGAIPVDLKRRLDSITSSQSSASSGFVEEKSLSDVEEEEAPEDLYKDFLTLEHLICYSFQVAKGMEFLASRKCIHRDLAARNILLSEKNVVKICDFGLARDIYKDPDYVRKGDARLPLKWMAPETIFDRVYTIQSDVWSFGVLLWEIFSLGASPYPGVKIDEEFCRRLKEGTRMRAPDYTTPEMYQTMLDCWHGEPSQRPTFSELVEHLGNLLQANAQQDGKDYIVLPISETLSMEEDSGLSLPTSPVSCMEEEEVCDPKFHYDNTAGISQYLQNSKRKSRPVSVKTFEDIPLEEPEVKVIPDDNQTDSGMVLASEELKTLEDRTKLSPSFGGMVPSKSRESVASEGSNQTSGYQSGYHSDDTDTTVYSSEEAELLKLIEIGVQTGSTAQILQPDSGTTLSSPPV
Procedure: Kinase activity and compound inhibition are investigated using one or more of the three assay formats described below. The ATP concentrations are selected near its Michaelis-Menten constant (KM) for each individual kinase. Dose-response experiments are performed at ten different inhibitor concentrations in a 384-well plate format. […] Typically H is close to unity.
In the LCCA assays, kinase activity is measured by the ATP consumption that is accurately measured by luciferase-coupled chemiluminescence. Greiner 384-well white clear bottom medium binding plates are used for LCCA. Briefly the kinase reaction is initiated by mixing compounds, ATP and kinases in a 20 μL volume. At the end of the kinase reaction, a 20 μL luciferase-luciferin mix is added and the chemiluminescent signal is read on a Wallac Victor^2 reader.

Chain of EphA2 (P29317 598-890): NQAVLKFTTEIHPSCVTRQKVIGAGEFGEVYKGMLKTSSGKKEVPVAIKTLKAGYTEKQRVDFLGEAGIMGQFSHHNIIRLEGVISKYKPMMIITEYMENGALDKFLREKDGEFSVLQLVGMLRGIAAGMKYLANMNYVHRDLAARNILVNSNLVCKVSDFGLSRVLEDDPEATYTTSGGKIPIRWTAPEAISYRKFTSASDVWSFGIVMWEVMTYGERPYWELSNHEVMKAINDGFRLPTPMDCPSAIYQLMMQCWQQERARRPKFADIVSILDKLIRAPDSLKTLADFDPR
Chain of EphB4 (P54760 605-890): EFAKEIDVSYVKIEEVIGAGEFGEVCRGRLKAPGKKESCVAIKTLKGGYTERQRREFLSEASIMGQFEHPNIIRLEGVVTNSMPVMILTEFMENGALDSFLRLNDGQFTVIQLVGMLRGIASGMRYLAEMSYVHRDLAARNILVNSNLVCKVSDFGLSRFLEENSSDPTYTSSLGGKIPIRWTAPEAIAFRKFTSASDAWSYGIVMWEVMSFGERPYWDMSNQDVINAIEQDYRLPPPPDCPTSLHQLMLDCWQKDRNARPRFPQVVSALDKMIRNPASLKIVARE

Row | Compound | IC50 [1] [nM] | IC50 [2] [nM] | IC50 [3] [nM] | IC50 [4] [nM] | IC50 [5] [nM] | IC50 ([2]; read-out: EphA2 IC50) [nM] | IC50 ([3]; read-out: EGFR IC50) [nM] | IC50 ([5]; read-out: KDR IC50) [nM]
1 | COc1cc2c(Nc3ccc(Cl)c(Cl)c3)ncnc2cc1OCC1CN(C(=NC#N)N2CCCCC2)CCO1 (stereo in doubt) [Example 216, [(1E)-[2-({[4-[(3,4-dichlorophenyl)amino]-6-(methyloxy)quinazolin-7-yl]oxy}methyl)morpholin-4-yl](piperidin-1-yl)methylidene]cyanamide] | < 50 | 50 to 1000 | < 50 | < 50 | 50 to 1000 |  |  | 
2 | COc1cc2c(Nc3ccc(Cl)c(Cl)c3)ncnc2cc1OCc1noc(C2CCCCN2C)n1 (centres unmarked) [Example 154, N-(3,4-dichlorophenyl)-6-(methyloxy)-7-({[5-(1-methylpiperidin-2-yl)-1,2,4-oxadiazol-3-yl]methyl}oxy)quinazolin-4-amine] | < 50 |  |  | < 50 |  |  | < 50 | 
3 | COc1cc2c(Nc3ccc(Cl)c(Cl)c3)ncnc2cc1OCc1ccc2nonc2c1 [Example 163, 7-[(2,1,3-benzoxadiazol-5-ylmethyl)oxy]-N-(3,4-dichlorophenyl)-6-(methyloxy)quinazolin-4-amine] | < 50 |  |  | < 50 |  |  | < 50 | 
4 | COc1cc2c(Nc3ccc(Cl)c(Cl)c3)ncnc2cc1OCc1c(-c2ccccc2)nn(C)c1Cl [Example 175, 7-{[(5-chloro-1-methyl-3-phenyl-1H-pyrazol-4-yl)methyl]oxy}-N-(3,4-dichlorophenyl)-6-(methyloxy)quinazolin-4-amine] | < 50 |  |  | < 50 |  |  | < 50 | 
5 | COc1cc2c(Nc3ccc(Cl)c(Cl)c3)ncnc2cc1OCCN1C(=O)c2ccccc2C1=O [Example 193, 2-(2-{[4-[(3,4-dichlorophenyl)amino]-6-(methyloxy)quinazolin-7-yl]oxy}ethyl)-1H-isoindole-1,3(2H)-dione] | < 50 |  |  | < 50 |  | 50 to 1000 | < 50 | < 50
6 | COc1cc2c(Nc3ccc(Cl)c(Cl)c3)ncnc2cc1OCc1nc(-c2ccccn2)cs1 [Example 202, N-(3,4-dichlorophenyl)-6-(methyloxy)-7-{[(4-pyridin-2-yl-1,3-thiazol-2-yl)methyl]oxy}quinazolin-4-amine] | < 50 |  |  | < 50 |  | 50 to 1000 | < 50 | 
7 | COc1cc2c(Nc3ccc(Cl)c(Cl)c3)ncnc2cc1OCc1nc(-c2ccncc2)cs1 [Example 203, N-(3,4-dichlorophenyl)-6-(methyloxy)-7-{[(4-pyridin-4-yl-1,3-thiazol-2-yl)methyl]oxy}quinazolin-4-amine] | < 50 |  |  |  |  | < 50 | < 50 | < 50
8 | COc1cc2c(Nc3ccc(Cl)c(Cl)c3)ncnc2cc1OCc1nc(CN2CCN(C)CC2)cs1 [Example 207, N-(3,4-dichlorophenyl)-6-(methyloxy)-7-[({4-[(4-methylpiperazin-1-yl)methyl]-1,3-thiazol-2-yl}methyl)oxy]quinazolin-4-amine] | < 50 |  |  | < 50 |  | 50 to 1000 | < 50 | 
9 | COc1cc2c(Nc3ccc(Cl)c(Cl)c3)ncnc2cc1OCc1nc(CN2CCCN(C)CC2)cs1 [Example 210, N-(3,4-dichlorophenyl)-7-[({4-[(4-methyl-1,4-diazepan-1-yl)methyl]-1,3-thiazol-2-yl}methyl)oxy]-6-(methyloxy)quinazolin-4-amine] | < 50 |  |  |  |  | < 50 | < 50 | < 50
10 | COc1cc2c(Nc3ccc(Cl)c(Cl)c3)ncnc2cc1OCc1nc(N2CCN(C(=O)OC(C)(C)C)CC2)no1 [Example 215, 1,1-dimethylethyl 4-[5-({[4-[(3,4-dichlorophenyl)amino]-6-(methyloxy)quinazolin-7-yl]oxy}methyl)-1,2,4-oxadiazol-3-yl]piperazine-1-carboxylate] | < 50 |  |  | < 50 |  | 50 to 1000 | < 50 | 
11 | COc1cc2c(Nc3ccc(Cl)c(Cl)c3)ncnc2cc1OCc1nc(N2CCN(C)CC2)no1 [Example 218, N-(3,4-dichlorophenyl)-6-(methyloxy)-7-({[3-(4-methylpiperazin-1-yl)-1,2,4-oxadiazol-5-yl]methyl}oxy)quinazolin-4-amine] | < 50 |  |  |  |  | 50 to 1000 | < 50 | < 50
12 | COc1cc2c(Nc3ccc(Cl)c(Cl)c3)ncnc2cc1OCc1noc(-c2ccccc2)n1 [Example 235, N-(3,4-dichlorophenyl)-6-(methyloxy)-7-{[(5-phenyl-1,2,4-oxadiazol-3-yl)methyl]oxy}quinazolin-4-amine] | < 50 |  |  |  |  | 50 to 1000 | < 50 | < 50
13 | N-(3,4-dichlorophenyl)-7-({[2-(1-ethylpiperidin-4-yl)-1,3-thiazol-4-yl]methyl}oxy)-6-(methyloxy)quinazolin-4-amine hydrochloride [Example 37] | 50 to 1000 |  |  | < 50 |  | < 50 | < 50 | 

The next lines start with the values.

Row | IC50 [1] [nM] | IC50 [2] [nM] | IC50 [3] [nM] | IC50 [4] [nM] | IC50 [5] [nM] | IC50 ([2]; read-out: EphA2 IC50) [nM] | IC50 ([3]; read-out: EGFR IC50) [nM] | IC50 ([5]; read-out: KDR IC50) [nM] | Compound
14 | < 50 |  |  | < 50 |  | < 50 | < 50 | < 50 | COc1cc2c(Nc3cc(Cl)c(Cl)cc3F)ncnc2cc1O[C@H]1CO[C@H]2[C@@H]1OC[C@@H]2OC [Example 69, 1,4:3,6-dianhydro-2-O-[4-[(4,5-dichloro-2-fluorophenyl)amino]-6-(methyloxy)quinazolin-7-yl]-5-O-methyl-L-iditol]
15 | < 50 |  |  | < 50 |  | 50 to 1000 | < 50 |  | COc1cc2c(Nc3ccc(Br)c(Cl)c3)ncnc2cc1O[C@H]1CO[C@@H]2CCO[C@H]12 [Example 77, 1,4:3,6-dianhydro-2-O-[4-[(4-bromo-3-chlorophenyl)amino]-6-(methyloxy)quinazolin-7-yl]-5-deoxy-D-xylo-hexitol]
16 | < 50 |  |  | < 50 |  | < 50 | < 50 | < 50 | COc1cc2c(Nc3ccc(Cl)c(Cl)c3)ncnc2cc1O[C@@H]1CO[C@@H]2[C@H]1OC[C@H]2F [Example 119, 1,4:3,6-dianhydro-2-deoxy-5-O-[4-[(3,4-dichlorophenyl)amino]-6-(methyloxy)quinazolin-7-yl]-2-fluoro-D-iditol]
17 | < 50 |  |  | < 50 |  | < 50 | < 50 | < 50 | COc1cc2c(Nc3cc(Br)cc(C(F)(F)F)c3)ncnc2cc1O[C@@H]1CO[C@@H]2[C@H]1OC[C@H]2F [Example 127, 1,4:3,6-dianhydro-5-O-[4-{[3-bromo-5-(trifluoromethyl)phenyl]amino}-6-(methyloxy)quinazolin-7-yl]-2-deoxy-2-fluoro-D-iditol]
18 | < 50 |  |  | < 50 |  |  | < 50 |  | COc1cc2c(Nc3ccc(Cl)c(Cl)c3)ncnc2cc1OCc1cc(C)on1 [Example 160, N-(3,4-dichlorophenyl)-7-{[(5-methylisoxazol-3-yl)methyl]oxy}-6-(methyloxy)quinazolin-4-amine]
19 | < 50 |  |  | < 50 |  | < 50 | < 50 |  | COc1cc2c(Nc3ccc(Cl)c(Cl)c3)ncnc2cc1OCc1noc(-c2ccc(C(F)(F)F)cc2)n1 [Example 167, N-(3,4-dichlorophenyl)-6-(methyloxy)-7-[({5-[4-(trifluoromethyl)phenyl]-1,2,4-oxadiazol-3-yl}methyl)oxy]quinazolin-4-amine]
20 | < 50 |  |  | < 50 |  | < 50 | < 50 |  | COc1cc2c(Nc3ccc(Cl)c(Cl)c3)ncnc2cc1OCc1cscn1 [Example 170, N-(3,4-dichlorophenyl)-6-(methyloxy)-7-[(1,3-thiazol-4-ylmethyl)oxy]quinazolin-4-amine]
21 | < 50 |  |  | < 50 |  | 50 to 1000 | < 50 |  | COc1cc2c(Nc3ccc(Cl)c(Cl)c3)ncnc2cc1OCC1CCCO1 (centres unmarked) [Example 183, N-(3,4-dichlorophenyl)-6-(methyloxy)-7-[(tetrahydrofuran-2-ylmethyl)oxy]quinazolin-4-amine]
22 | < 50 |  |  | < 50 |  | 50 to 1000 | < 50 |  | COc1cc2c(Nc3ccc(Cl)c(Cl)c3)ncnc2cc1OCC1CCC1 [Example 187, 7-[(cyclobutylmethyl)oxy]-N-(3,4-dichlorophenyl)-6-(methyloxy)quinazolin-4-amine]
23 | 50 to 1000 |  |  |  |  | 50 to 1000 | < 50 | < 50 | COc1cc2c(Nc3ccc(Cl)c(Cl)c3)ncnc2cc1OCc1cc(Br)cc(Br)c1 [Example 232, 7-{[(3,5-dibromophenyl)methyl]oxy}-N-(3,4-dichlorophenyl)-6-(methyloxy)quinazolin-4-amine]
24 | 50 to 1000 |  |  |  |  | 50 to 1000 | < 50 | < 50 | CCN1CCCC(c2nc(COc3cc4ncnc(Nc5ccc(Cl)c(Cl)c5)c4cc3OC)no2)C1 (centres unmarked) [Example 239, N-(3,4-dichlorophenyl)-7-({[5-(1-ethylpiperidin-3-yl)-1,2,4-oxadiazol-3-yl]methyl}oxy)-6-(methyloxy)quinazolin-4-amine]
25 | < 50 |  |  |  |  | < 50 | < 50 | < 50 | CCN1CCC(c2nc(COc3cc4ncnc(Nc5ccc(Cl)c(Cl)c5)c4cc3OC)cs2)CC1 [Example 242, N-(3,4-dichlorophenyl)-7-({[2-(1-ethylpiperidin-4-yl)-1,3-thiazol-4-yl]methyl}oxy)-6-(methyloxy)quinazolin-4-amine]
